# Measurements published in US20220213030A1, “AMINOGUANIDINE HYDRAZONES AS RETROMER STABILIZERS USEFUL FOR TREATING NEUROLOGICAL DISEASES” (OSPEDALE SAN RAFFAELE SRL, priority 2019, published 2022).
# Entries after “also recorded” stand apart in the source; their conditions may differ.
# Tests used:
# [1] = tested on: LC3; test: pHfluorin-LC3 autophagy assay in Neuro2a clone 7B11; type: cell-based, mouse; conditions: BafilomycinA1 200 nM, Torin-1 250 nM, 48 hours
# Method: Besides increasing the functionality of lysosomes we hypothesised that compound 2a could also enhance the autophagy system. Therefore we used a pHfluorin-LC3-based assay to monitor the autophagy process in living Neuro2a cells. We have established in our laboratory a Neuro2a stable cell clone (7B11) that expresses the Microtubule-associated protein 1A/1B-light chain 3 (LC3) coupled with the ph-sensitive GFP/phlourin.
# Neuro2a-7B11 cells were incubated with increasing concentrations of compound 2a (0.1-100 μM) as well as with the control molecules Bafilomycin Al and Torin-1. After 48 hours the GFP/phluorin signal, which is ph-sensitive, was measured by flow cytometry and fold changes calculated over untreated cells.
# Autophagy assay were done using a stable Neuro2a cell clone expressing the pHluorin-mKate2-tagged human LC3 plasmids, Cell clones were generated according our published methods (Mazzocchi 2016). Upon transfection, cells were selected by 400 μg/mL G418 Disulfate Salt Solution (Sigma-Aldrich, St. Louis, Mo.) and further cloned by limiting dilution. […] Neuro2a 7B11 cells were treated with Compound 2a (0.1-100 μM) for 48 hours then MFI levels of the pHfluorin were measured in living cells by flow cytometry.
# [2] = tested on: TNFα; test: LPS-mediated TNFα release in Raw 264.7 cells (ELISA); type: cell-based, murine; conditions: 10 μM for 1 hour, then LPS 100 ng/ml, 4 hours
# Excerpt: We observed that the molecular structure featuring compound 2a is reminiscent of the patented compound CNI-1493 (N,N′-bis [3,5 -bis [1(aminoiminomethyl) hydrazono]ethyl]phenyl]decanediamide tetrahydrochloride (CAS Reg. No. 164301-51-3)), (FIG. 16A). CNI-1493 inhibits macrophage activation in the animal model of Multiple Sclerosis producing a general amelioration of clinical and pathological outcomes of these mice (Martiney, Rajan et al. 1998). […] CNI-1493 suppresses the production of pro-inflammatory cytokines, belonging to the plethora of detrimental signals that accompany neurodegenerative processes in several disorders. […] We followed experimental procedures published by Bianchi and colleagues that describe the ability of CNI-1493 to blunt the production of this cytokine (Bianchi, Bloom et al. 1996). Cells were incubated with CNI-1493 (10 μM) or with compound 2a (10 μM) for 1 hour and then we added the LPS (100 ng/ml) to media. We next collected supernatants (4 hours after the LPS stimulation) form cells for the evaluation of TNFα levels.
# Raw 264.7 cells (10^5/well) were treated with compound 2a, CNI-1493 or vehicle for 1 hour then we applied LPS (100 ng/ml) and supernatants were collected after 4 hours. […] Concentrations of TNFα were calculated according to a standard curve and expressed as nanograms per […]. […]
# [3] = tested on: G93A mice; conditions: mouse, in vivo; cited from earlier work
# [4] = tested on: TNFα, IL-1(3, IL-6 and macrophage inflammatory proteins 1α and 1β); conditions: cited from earlier work
# [5] = target: VPS35 (Mus musculus, UniProt Q9EQH3+Q9QZ88); test: VPS35 levels in Neuro2a cells by Western blot (screening of amino guanidine hydrazones); type: cell-based; set-up: endogenous in cells; host or cells: Neuro2a; conditions: 48 hours; for VPS35 levels (in words): compounds at 10 μM; for Mean fold changes (VPS35 levels normalized on β-Actin, over vehicle-treated cells): 10 μM, independent cultures n=3
# Method: To functionally screen the majority of synthetized amino guanidine hydrazones of the invention and determine their effects on the retromer complex, we incubated Neuro2a cells with each synthetized molecule at the concentration of 10 μM.
# The test was executed in triplicate for each tested compound of the invention, cells lysates were established after 48 hours' incubation, and levels of VPS35 were normalized on the housekeeping gene β-Actin by Western blot. We observed a preliminary SAR among the compounds.
# Fold changes are calculated over normalized VPS35 levels measured in vehicle-treated cells.
# Neuro2a cells were seeded on 12 wells multiwell at the concentration of 100 000 cells/well. Cells were incubated with each compound, including the standard R55, at 10 μM for 48 hours. Cells were then washed in PBS 1× and lysed in a buffer containing Tris-HCl 10 mM pH8, EDTA 1 mM pH8, NaCl 100 mM, NP40 1%, with protease inhibitor cocktail (Sigma) 1×. Using a cell scraper total lysates were collected from each well, quantified with BCA (BCA protein assay, Thermofisher). Five μg were resolved on precast 10% acrylamide gel (Biorad). Proteins were transferred to a PVDF membrane (Millipore) and western blot were performed using the following antibodies: goat αVPS35 (1:1000), mouse α-βActin (1:10000). Detection of proteins was obtained by a chemiluminescence detection kit (PerkinElmer).
# [6] = tested on: Neuro2a cells receiving H2O2; test: H2O2-induced cell death in Neuro2a cells; type: cell-based, mouse; conditions: compound 10 μM, H2O2 200 μM, 48 hours
# Method: We tested the specificity of compound 2a in an assay based on H2O2-induced chromosomal breaks that lead to DNA fragmentation and cell death. In principle such DNA lesions are the cause of cell death according to a process that is not influenced by the retromer. Thus, our leads should not be able to modulate rates cell survival in Neuro2a cells receiving H2O2. We incubated Neuro2a cells with 200 μM of H2O2 along with compounds 2a, 2c, 2d and 2g (10 μM).
# Cell survival experiments were run on 96-well plates using Cell Counting Kit-8 (CCK8) survival kit (96992-Sigma) according the manufacturer's recommendations. Compound 2a cytotoxicity was tested on Neuro2a cells receiving increasing amount of compound 2a (1, 10, 50, 100, 200, 500 and 1000 μM) for 48 hours.
SMILES,"Mean fold changes (VPS35 levels normalized on β-Actin, over vehicle-treated cells) [5]",further results
"CO/C1=C\C(C)=C\[C@@H](C)[C@@H](O)[C@@H](C)C/C(C)=C/C=C/[C@H](OC)[C@@H]([C@@H](C)[C@@H](O)[C@H](C)[C@@]2(O)C[C@@H](O)[C@H](C)[C@@H](C(C)C)O2)OC1=O [Bafilomycin A1, reference compound]",–,"GFP/phluorin fluorescence, control molecules [1]: augmented fluorescence"
"C/C(=N\N=C(N)N)c1cc(NC(=O)CCCCCCCCC(=O)Nc2cc(/C(C)=N/N=C(N)N)cc(/C(C)=N/N=C(N)N)c2)cc(/C(C)=N/N=C(N)N)c1.Cl.Cl.Cl.Cl [CNI-1493, reference compound]",–,TNFα levels in supernatants [2]: significantly inhibited the expression of this cytokine; also recorded: significantly blunted TNFα expression; onset of the disease and lifespan [3]: delayed the onset of the disease and increased the lifespan of mice; expression of pro-inflammatory cytokines [4]: inhibits the expression; VPS35 levels (in words) [5]: did not increased; VPS35 levels (in words) ([5]; listed as CNI-1494): does not modulate VPS35
"N=C(N)NN=Cc1cccc(C=NNC(=N)N)c1Br [Compound 2b, 2-Bromo-1,3-bis-aminoguanidine phenyl hydrazone]",1.300,–
"N=C(N)NN=Cc1ccc(Br)c(C=NNC(=N)N)c1 [Compound 2c, 4-Bromo-1,3-bis-amino guanidine phenyl hydrazone]",1.617,cell survival with H2O2 with or without compound [6]: did not result in any significant difference
"N=C(N)NN=Cc1ccc(O)c(C=NNC(=N)N)c1 [Compound 2d, 1-Hydroxy-2,4-bis-aminoguanidine phenyl hydrazone]",2.477,cell survival with H2O2 with or without compound [6]: did not result in any significant difference
"COc1ccc(C=NNC(=N)N)cc1C=NNC(=N)N [Compound 2e, 1-Methoxy-2,4-bis-amino guanidine phenyl hydrazone]",2.070,–
"CCCCOc1ccc(C=NNC(=N)N)cc1C=NNC(=N)N [Compound 2f, 1-(n-Butoxy)-2,4-bis-aminoguanidine phenyl hydrazone]",1.415,–
"Cc1cc(C=NNC(=N)N)cc(C=NNC(=N)N)c1 [Compound 2g, 5-Methyl-1,3-bis-aminoguanidine phenyl hydrazone]",2.080,cell survival with H2O2 with or without compound [6]: did not result in any significant difference
"COc1cc(C=NNC(=N)N)cc(C=NNC(=N)N)c1 [Compound 2i, 1-Methoxy-3,5-bis-aminoguanidine phenyl hydrazone]",1.310,–
"CC(=O)Nc1cc(C=NNC(=N)N)cc(C=NNC(=N)N)c1 [Compound 2l, 1-Acetamido-3,5-bis-aminoguanidine phenyl hydrazone]",1.660,–
"CCC(=O)N1CCN(c2ccc(-n3c(=O)ccc4cnc5ccc(-c6cnc7ccccc7c6)cc5c43)cc2C(F)(F)F)CC1 [Torin 1, reference compound]",–,"GFP/phluorin fluorescence, control molecules [1]: significantly dampened"

# More lines, main results first:
"Mean fold changes (VPS35 levels normalized on β-Actin, over vehicle-treated cells) [5]",SMILES,further results
0.974,"Cc1ccc(C(=O)Nc2cc(C=NNC(=N)N)cc(C=NNC(=N)N)c2)cc1 [Compound 2m, 1-p-Tolylamido-3,5-bis-aminoguanidine phenyl hydrazone]",–
1.280,"CS(=O)(=O)Nc1cc(C=NNC(=N)N)cc(C=NNC(=N)N)c1 [Compound 2n, 1-Methylsulfonamido-3,5-bis-aminoguanidine phenyl hydrazone]",–
1.501,"Cc1ccc(S(=O)(=O)Nc2cc(C=NNC(=N)N)cc(C=NNC(=N)N)c2)cc1 [Compound 2o, 1-p-Tolylsulfonamido-3,5-bis-aminoguanidine phenyl hydrazone]",–
1.582,"COC(=O)c1cc(C=NNC(=N)N)cc(C=NNC(=N)N)c1 [Compound 2p, 1-Carbomethoxy-3,5-bis-amino guanidine phenyl hydrazone]",–
1.784,"N=C(N)NN=Cc1cc(C=NNC(=N)N)cc(C(=O)N2CCN(c3ccccc3)CC2)c1 [Compound 2q, 5-(N4-phenylpiperazinyl)carboxamido-3,5-bis-amino guanidine phenyl hydrazone]",–
1.154,"N=C(N)NN=Cc1cc(C=NNC(=N)N)cc(C=NNC(=N)N)c1 [Compound 2r, 1-3,5-tris-amino guanidine phenyl hydrazone]",–
1.978,"N=C(NN=Cc1cccc(C=NNC(=N)N2CCCC2)c1)N1CCCC1 [Compound 2v, 1,3-bis-(N3-pyrrolidinyl) guanidine phenyl hydrazone]",–
0.625,"CCCCNC(=N)NN=Cc1cc(C=NNC(=N)NCCCC)cc(NC(=O)c2ccc(C)cc2)c1 [Compound 2w, 1-p-Tolylamido-3,5-bis-(N3-n-butylamino) guanidine phenyl hydrazone]",–
1.105,"C(=NNc1nc2ccccc2[nH]1)c1cccc(C=NNc2nc3ccccc3[nH]2)c1 [Compound 2z, 1,3-Bis-(N2N3-benzimidazolidinyl) guanidine phenyl hydrazone]",–
0.600,"C/C(=N\NC(=N)N)c1cccc(/C(C)=N/NC(=N)N)c1 [Compound (VIII), 1′,3′-Dimethyl-1,3-bis-aminoguanidine phenyl hydrazone, reference compound]",–
